Earlier results, collected in paper PMC12051030, “Identification of inhibitors of the Salmonella FraB deglycase, a drug target” (FEBS Open Bio, 2025).

Columns and labels:
Design in all cases: method as in PMID 28145708
Conditions in all cases: bioassay records in PubChem; cited from earlier work
dCTP pyrophosphatase 1 = system: dCTP pyrophosphatase 1
deubiquitinase USP28 = system: deubiquitinase USP28
deubiquitinase USP17 = system: deubiquitinase USP17
deubiquitinase USP30 = system: deubiquitinase USP30

Row | Compound | inhibition of dCTP pyrophosphatase 1 (dCTP pyrophosphatase 1) | inhibition of USP28 (deubiquitinase USP28) | inhibition of USP17 (deubiquitinase USP17) | inhibition of USP30 (deubiquitinase USP30)
1 | Fc1ccc(-c2nn3c(-c4ccccn4)nnc3s2)cc1 [3469:N17, 6‐(4‐fluorophenyl)‐3‐pyridin‐2‐yl‐[1,2,4]triazolo[3,4‐b][1,3,4]thiadiazole] | reported to inhibit |  |  | 
2 | CC(C)Cc1cc(-c2nn3c(-c4ccccc4Cl)nnc3s2)n[nH]1 [3470:A09, 3‐(2‐chlorophenyl)‐6‐[5‐(2‐methylpropyl)‐1H‐pyrazol‐3‐yl]‐[1,2,4]triazolo[3,4‐b][1,3,4]thiadiazole] |  | found to inhibit | found to inhibit | found to inhibit
